Assay [1] addresses T1, human-CD73 (Trp27-Lys547, His-tag) (Homo sapiens, UniProt P21589).
T1 construct: human-CD73 (Trp27-Lys547, His-tag); His-tag
T1 sequence (P21589 27-547): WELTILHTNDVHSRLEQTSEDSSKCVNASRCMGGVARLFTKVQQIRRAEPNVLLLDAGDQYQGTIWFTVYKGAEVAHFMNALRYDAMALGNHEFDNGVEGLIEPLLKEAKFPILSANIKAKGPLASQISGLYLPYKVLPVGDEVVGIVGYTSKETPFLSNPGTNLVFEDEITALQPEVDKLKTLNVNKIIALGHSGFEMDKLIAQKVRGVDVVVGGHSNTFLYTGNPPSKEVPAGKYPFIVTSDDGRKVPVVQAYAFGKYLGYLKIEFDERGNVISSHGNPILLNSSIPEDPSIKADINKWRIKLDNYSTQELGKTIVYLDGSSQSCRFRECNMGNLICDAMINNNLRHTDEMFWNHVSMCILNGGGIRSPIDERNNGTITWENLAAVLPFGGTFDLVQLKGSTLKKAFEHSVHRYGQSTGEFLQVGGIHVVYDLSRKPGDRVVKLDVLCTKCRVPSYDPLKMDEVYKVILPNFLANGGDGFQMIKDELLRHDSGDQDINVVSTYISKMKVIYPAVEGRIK
Put plainly: CD73 biochemical assay (colorimetric, Malachite Green phosphate detection). The note with it: 2 nM CD73, 50 μM AMP; for inhibition at 20 µM: 20 μM compound, read-out: % inhibition at 20 μM (Percent inhibition data in CD73); for IC50: four-parameter curve fit, read-out: Potency (IC50 values) of selected compounds in CD73, group. As to the method:
A colorimetric-based method was used for assaying compounds of the invention for CD73 enzyme inhibitory activity. Human CD73 catalyzes the conversion of AMP to adenosine with the release of orthophosphate. A Malachite Green Phosphate Detection kit is used to measure the formation of orthophosphate product. […] A compound of the present invention and enzyme are incubated for 30 minutes at room temperature. Next, 20 μL of AMP in assay buffer is added to the plate. The final concentration of CD73 and AMP are 2 nM and 50 μM respectively. Following 30 minutes reaction at room temperature, 20 μL of Malachite reagent is added to all the reaction wells. The formation of green complex formed between Malachite Green, molybdate and free orthophosphate is measured on a plate reader (620 nm).

A further assay concerns the target T2, A2aR (Homo sapiens, UniProt P29274).
T2 construct: expressed in transfected cells
The assay can be described thus: A2aR biochemical assay (TR-FRET binding, Tag-lite A2aR labelled cells, fluorescent antagonist). The note with it: 20 μM compound; 10 nM fluorescent A2aR antagonist; vs DMSO control; read-out: % inhibition at 20 μM (Percent inhibition data in A2aR). As to the method: The compounds of present invention were assayed for A2aR enzyme binding activity in a TR-FRET based method. Typically, 10 μL of A2aR labelled cells in assay buffer (Tag-lite, 1×) is added to a 384-well plate containing 5 μL of a compound of present invention in final 1% DMSO, serially diluted in 1:5 in a 5-6 point titration. The aforesaid compound and cells are incubated for 30 minutes at room temperature. Next, 5 μL of A2aR antagonist (fluorescent ligand) in assay buffer is added to the plate. The final concentration of A2aR antagonist is 10 nM. Following 30 minutes reaction at room temperature, the plate was read on a plate reader (Ex: 340 nm Em: 615 nm and 665 nm) to measure the binding of test compound to A2aR cells. The results are interpreted as percentage inhibition as presented in Table-2A of binding by the test compound with respect to the DMSO control.

From patent publication US20230027075A1, “SULFONAMIDE COMPOUNDS TARGETING CD73 AND ADENOSINE RECEPTORS” (Aurigene Discovery Technologies Limited, priority 2019, published 2023) come the findings set out here.

T2 sequence (P29274 whole entry): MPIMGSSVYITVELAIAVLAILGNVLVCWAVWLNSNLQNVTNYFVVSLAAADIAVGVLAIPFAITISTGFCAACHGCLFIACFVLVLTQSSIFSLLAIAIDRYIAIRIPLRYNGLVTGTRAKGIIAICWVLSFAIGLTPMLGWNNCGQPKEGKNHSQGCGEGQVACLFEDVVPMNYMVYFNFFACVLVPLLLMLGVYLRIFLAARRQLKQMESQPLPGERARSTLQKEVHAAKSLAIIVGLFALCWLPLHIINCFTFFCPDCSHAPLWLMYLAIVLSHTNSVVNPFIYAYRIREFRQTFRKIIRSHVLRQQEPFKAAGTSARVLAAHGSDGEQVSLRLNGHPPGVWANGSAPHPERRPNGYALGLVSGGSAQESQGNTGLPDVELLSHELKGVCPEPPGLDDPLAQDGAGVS

On to `NC(=O)c1cc(S(=O)(=O)Nc2cccc3c2cnn3CCNc2nc(N)n3nc(-c4ccco4)nc3n2)cc(Cl)c1O` [Example D2, 5-(N-(1-(2-((7-amino-2-(furan-2-yl)-[1,2,4]triazolo[1,5-a][1,3,5]triazin-5-yl)amino)ethyl)-1H-indazol-4-yl)sulfamoyl)-3-chloro-2-hydroxybenzamide], for which, in assay [1], the inhibition at 20 µM is 62% and the IC50 is more than 1000 nM. Also, on A2aR, the inhibition at 20 µM came out at 79%.
For `NC(=O)c1cc(S(=O)(=O)Nc2ccc(CCNc3nc(N)n4nc(-c5ccco5)nc4n3)nc2)cc(Cl)c1O` [Example E1, 5-(N-(6-(2-((7-amino-2-(furan-2-yl)-[1,2,4]triazolo[1,5-a][1,3,5]triazin-5-yl)amino)ethyl)pyridin-3-yl)sulfamoyl)-3-chloro-2-hydroxybenzamide], in that order: 86%, more than 1000 nM and 83%.
On to `NC(=O)c1cc(S(=O)(=O)Nc2ccc(CCNc3cc(N)n4nc(-c5ccco5)nc4n3)nc2)cc(Cl)c1O` [Example E2, 5-(N-(6-(2-((7-amino-2-(furan-2-yl)-[1,2,4]triazolo[1,5-a]pyrimidin-5-yl)amino)ethyl)pyridin-3-yl)sulfamoyl)-3-chloro-2-hydroxybenzamide], for which, in assay [1], the inhibition at 20 µM amounted to 94% and the half-maximal inhibitory concentration (IC50) was in the range of 110 to 1000 nM. The inhibition at 20 µM on A2aR came out at 85%.
